We go through three sequences from publication PMC3154333, “Specificity of RSG-1.2 Peptide Binding to RRE-IIB RNA Element of HIV-1 over Rev Peptide Is Mainly Enthalpic in Origin” (PLoS ONE, 2011).

The subject of assay [1] is RRE-IIB RNA. Briefly: Isothermal titration calorimetry (ITC) of peptide binding to RRE-IIB. On the set-up: species or system HIV-1. The settings on record: for N1 / N2: ITC stoichiometry; for N1 / ΔH1 (binding enthalpy ΔH) / TΔS1: first site; for N1 / N2 / ΔH1 (binding enthalpy ΔH) / Ka2 / TΔS2 / ΔH2 / TΔS1: two-site model; for N2 / Ka2 / TΔS2 / ΔH2: second (low affinity) site; for ΔH1 (binding enthalpy ΔH): 350 µM peptide into 10 µM RRE-IIB, corrected for heat of dilution, pH 7.5, 50 mM NaCl; for Ka1 / TΔS1: RSG-1.2 mutants; for Ka1: high affinity site, model for two set of binding sites, 10 mM sodium cacodylate, 0.1 mM EDTA, 50 mM NaCl, ± = SD of data from fitted curve; for TΔS1: derived from fits of ITC profiles. How it is done: (§1) Fluorescence labeled RNA having 2-Aminopurine (2-AP) at U72 position of RRE-IIB was obtained from Ocimum Biosolutions Ltd. Netherlands. All the stock solutions were prepared in Milli-Q water. Other reagents were commercially available and were of analytical grade quality and used without any further purification. All the experiments were performed using 10 mM sodium cacodylate buffer containing 0.1 mM EDTA and 50 mM NaCl at pH 7.5.
(§2) Isothermal titration calorimetry measurements were conducted at 25°C on a Microcal VP-ITC (Microcal, Inc.; Northampton MA). Titration of RRE-IIB with Rev as well as RSG-1.2 were done by injecting 4 µL aliquots of 350 µM peptide from a 250 µL rotating syringe (350 rpm) into an isothermal sample chamber containing 1.5 mL of 10 µM RRE-IIB solution. Each experiment of this type was accompanied by the corresponding control experiment in which 350 µM peptide were injected into a solution of buffer alone. The duration of each injection was 8 s and the delay between the injections was 300 s, the initial delay prior to the first injection was 200 s. Each injection generated a heat burst curve (microcalories/second vs. seconds) and the area under each curve was determined by integration [using origin version 7.0 software (Microcal, Inc.; Northampton, MA)] to obtain the measure of heat associated with that injection. The buffer corrected ITC profiles for the binding of Rev and RSG-1.2 were fit with a model for two set of binding site. The net enthalpy change for RRE-IIB stem loop interaction with Rev and RSG-1.2 were determined by subtraction of the heat of dilution.
(ITC needs no label: the signal is the heat of the interaction.)

The test system of another assay is 2-AP labeled RRE-IIB RNA. Briefly: Fluorescence titration of 2-AP labeled RRE-IIB with peptides. The assay is classed as binding, HIV-1. The settings on record: pH 7.5, 25°C. How it is done:
as §1
Steady state fluorescence spectra were collected using Xe 900 lamp of Edinburgh instruments Spectrofluorometer equipped with thermoelectrically controlled cell holders. The excitation of the sample was done at 320 nm wavelength and fluorescence spectra were collected from 340 nm to 450 nm. The excitation as well as emission slit width were kept at 3 nm. A quartz cell of 1 cm path length, transparent from four sides, was used. All the experiments were conducted at 25°C. RNA concentration was fixed at 0.1 µM and the peptide concentration was varied from 0–0.3 µM. The buffer solution contained 10 mM sodium cacodylate buffer, 0.1 mM EDTA and 50 mM NaCl at pH 7.5 and 25°C. The changes in the fluorescence intensity at 370 nm were monitored as a function of increase in peptide concentration. For data analysis, the observed fluorescence intensity was considered as the sum of the weighted contributions from a peptide bound and an unbound RNA form. [drawing 1] (1)
Where F corresponds to the observed fluorescence intensity at each titrant concentration, F0 and Fb are the respective fluorescence intensities of initial and final states of titration, α is the mole fractions of RNA in bound form. Assuming 1∶1 stoichiometry for the interaction, it can be shown that: [drawing 2] (2)
Where Ka is the association constant, [R0] is the total RNA concentration and [Lt] is the added peptide concentration. From Equations (1) and (2), it can be shown that: [drawing 3] (3)
Where ΔF = F – F0 and ΔFmax = Fmax – F0
The free energy of binding was calculated from the standard relation ΔG = -RTlnKa where R is the universal gas constant and T is the absolute temperature in Kelvin.
Fluorescence spectroscopy is a useful tool for determining binding constants of two interacting partners. We employed this tool for determining binding affinity of Rev and RSG-1.2 with the RRE-IIB RNA stem loop structure. In order to carry out fluorescence titration, RRE-IIB RNA was fluorescently labeled by incorporating 2-Aminopurine (2-AP) at position U72. […] All the fluorescence titrations were performed using 10 mM sodium cacodylate buffer containing 0.1 mM EDTA and 50 mM NaCl at pH 7.5 and at 25°C. […] Normalized change in fluorescence intensity at 370 nm was plotted against molar concentration of peptide. […]

Assay [2] relates to RRE-IIB RNA. As to the kind of experiment: Temperature dependent UV melting of RRE-IIB with peptides. The assay is classed as binding, HIV-1. The following applies: pH 7.5. The procedure: Temperature dependent UV melting experiments were carried out using a Cary 100 (Varian) Spectrophotometer equipped with thermoelectrically controlled cell holder. A quartz cell of 1cm path length was used for all absorbance studies. Temperature dependent absorption spectra were obtained at 260 nm with rate of 0.5°C/min. increase in temperature, from 40 to 95°C. In these experiments the concentration of RNA was kept 1 µM and peptide concentration was increased from 0–3 µM. The buffer solution contained 10 mM sodium cacodylate buffer, 0.1 mM EDTA and 50 mM NaCl at pH 7.5. For each optically detected transition, the melting temperature (Tm) was determined using previously described methods.

The test system of assay [3] is RRE-IIB RNA. As to the kind of experiment: CD spectroscopy of RRE-IIB with peptides. The assay is classed as binding, HIV-1. The settings on record: 5 µM RNA, pH 7.5, 25°C. The procedure: Circular dichroism (CD) spectra were recorded on a Jasco spectropolarimeter (model J815, Japan) equipped with a thermoelectrically controlled cell holder. The cuvette used for acquiring spectra was of 1 cm in path length. CD spectra were recorded from 350 nm to 200 nm; with accumulation of 3 and averaged at 25°C. The buffer solution contained 10 mM sodium cacodylate buffer, 0.1 mM EDTA and 50 mM NaCl at pH 7.5. In a titration experiment RNA concentration was fixed at 5 µM and the peptides concentration varied from 0–25 µM.

The test system of assay [4] is RRE-IIB RNA. As to the kind of experiment: Temperature dependent ITC (heat capacity change). The assay is classed as binding, HIV-1. The settings on record: ITC at 10, 20, 25 and 35°C, pH 7.5. The procedure:
as §2
Heat capacity changes (ΔCp), that accompany the peptide binding to RNA can be determined by performing temperature dependent ITC experiments under same buffer conditions. […]

Where “and” joins values, the source holds several entries; their conditions need not be identical. Identical values can stand only once. Entries after “also recorded” stand apart in the source; their conditions may differ.

In the assay with RRE-IIB RNA [1] (pH 7.5, 25°C), DRRRRGSRPSGAERKRRRAAAA [R15K] yielded an N1 of 1.6, an N2 of 1.6 and a TΔS1 of 1.3 ± 0.2 kcal/mol. The “ΔH1 (binding enthalpy ΔH)” value in the assay with RRE-IIB RNA [1] (ITC, 25°C) was -8.7 ± 0.1 kcal/mol. In the assay with RRE-IIB RNA [1] (ITC, pH 7.5, 25°C), this sequence yielded a Ka1 of 2.4±0.7 M^−1 × 10^7, a Ka2 of 7.0±0.2 M^−1 × 10^5, a TΔS2 of 5.5 ± 0.1 kcal/mol and a ΔH2 of -2.4 ± 0.3 kcal/mol.
Turning to DRRRRGSRPSGAERRDRRAAAA [R15D], in the assay with RRE-IIB RNA [1] (pH 7.5, 25°C), the N1 came out at 1.5, the N2 amounted to 1.5 and the TΔS1 was found to be 6.2 ± 0.3 kcal/mol. Further, the “ΔH1 (binding enthalpy ΔH)” value with RRE-IIB RNA [1] (ITC, 25°C) was -3.9 ± 0.1 kcal/mol. In the assay on RRE-IIB RNA [1] (ITC, pH 7.5, 25°C), this sequence yielded a Ka1 of 2.9±0.4 M^−1 × 10^7, a Ka2 of 14.2±0.2 M^−1 × 10^5, a TΔS2 of 7.3 ± 0.4 kcal/mol and a ΔH2 of -1.0 ± 0.1 kcal/mol.
As to “DTRQARRNRRRRWRERQRAAAAR [Rev, minimal arginine rich Rev peptide of HIV-1 ([…])]”, the “change in fluorescence intensity of 2-AP RRE-IIB” value in the assay with 2-AP labeled RRE-IIB RNA (0.1 µM RNA, 370 nm) was “fluorescence intensity increased upon addition of peptide”. Further, the “association constant Ka” value in the assay with 2-AP labeled RRE-IIB RNA (2-AP at U72, 0.1 µM RNA, 370 nm, 10 mM sodium cacodylate, 0.1 mM EDTA, 50 mM NaCl, fit with equation 3 (1∶1)) is recorded as 3.1±0.4×10^7 M^−1. Further, in the assay with 2-AP labeled RRE-IIB RNA (fluorescence binding studies (footnote b), 2-AP at U72, 0.1 µM RNA, peptide 0–0.3 µM, ex 320 nm/em 370 nm, 10 mM sodium cacodylate, 0.1 mM EDTA, 50 mM NaCl, 1∶1 fit), the Ka1 is on record as 3.1±0.4 ^b M^−1 × 10^7. Moreover, in the assay on 2-AP labeled RRE-IIB RNA (ΔG = -RTlnKa, fluorescence Ka), the “ΔG (Gibb's free energy of binding)” value was -10.2 ± 0.1 kcal/mol. Besides, in the assay with RRE-IIB RNA [1] (ITC, 25°C), the “ΔH1 (binding enthalpy ΔH)” value was “≈ 0 kcal/mol and 0 kcal/mol”. In the assay on RRE-IIB RNA [1] (ITC, 25°C, pH 7.5), the “heat changes / enthalpy of binding (in words)” value is “small; also recorded: almost zero enthalpy of interaction; also recorded: negligible enthalpy”. Moreover, the “TΔS1 (TΔS)” value in the assay on RRE-IIB RNA [1] (calculated by ΔG = ΔH − TΔS from fluorescence Ka and ITC ΔH (footnote c), pH 7.5, 25°C) was 10.2±0.2 kcal/mol and 10.2±0.2 ^c kcal/mol. Also, in the assay on RRE-IIB RNA [1] (calculated by ΔG = ΔH − TΔS, 25°C, pH 7.5), the TΔS is 10.2 ± 0.2 kcal/mol. Further, the thermodynamic driving force entry in the assay on RRE-IIB RNA [1] (from ΔH and TΔS, 25°C, pH 7.5) was “essentially entropically driven; also recorded: exclusively entropy driven”. Further, in the assay with RRE-IIB RNA [2] (peptide to RNA molar ratio 1∶1, 1 µM RNA, 260 nm, 0.5°C/min, 10 mM sodium cacodylate, 50 mM NaCl, 0.1 mM EDTA), the “ΔTm (increase in Tm of RRE-IIB; Tm of RNA alone 67.3°C)” value stood at 1 °C. For the same sequence, the “change in Tm at higher peptide ratios” value with RRE-IIB RNA [2] (ratios above 1∶1 (2∶1 and 3∶1), 1 µM RNA) is listed as “negligible changes were observed”. In addition, in the assay with RRE-IIB RNA [3] (peptide 0–25 µM (up to 5∶1), 10 mM sodium cacodylate, 50 mM NaCl, 0.1 mM EDTA), the “CD signal of RRE-IIB at 240 nm and 210 nm” value is “became more negative at 240 nm and 210 nm”. In the assay with RRE-IIB RNA [3] (up to 5∶1 peptide), the “CD signal of RRE-IIB at 265 nm” value is “no significant change was observed at 265 nm”. Moreover, in the assay with RRE-IIB RNA [4], the “change in heat capacity (in words)” value was “essentially no change in heat capacity” and the “temperature dependence of binding enthalpy” value is “does not show any change in enthalpy of binding; also recorded: no change in binding enthalpy”.
